Test results taken from patent publication US12018011B2, “Macrocyclic compounds and compositions, and methods of preparing and using the same” (Kura Oncology, Inc., priority 2021, dated 2024).

molecular target: T1, Recombinant human farnesyl transferase (FTase) (Homo sapiens, UniProt P49356); test: FTase fluorescence assay (farnesylation of dansyl-GCVLS peptide); assay type: biochemical; details: recombinant human FTase 2.5 nM, Dansyl-GCVLS 85 nM, FPP 30 nM, 30° C., 50 minutes
T1 construct: purchased Crelux (Martinsried, Germany)
Excerpt: T24/83 cell line was purchased from the European Collection of Authenticated Cell Cultures (Salisbury, UK). Recombinant human farnesyl transferase (FTase) and geranylgeranyl transferase type-1 (GGTase) were obtained from Crelux (Martinsried, Germany). Dansyl labelled GCVLS peptide was purchased from Bachem (Torrance, CA), and Dansyl labelled GCVLL peptide was purchased from Bio Synthesis (Lewisville, TX). Farnesyl Pyrophosphate (FPP) and Geranylgeranyl pyrophosphate (GGPP) were purchased from Cayman (Ann Arbor, MI).
Specific biochemical activity of the compounds disclosed herein as FTase inhibitors was determined by measuring the ability of the compounds to block the farnesylation by recombinant FTase of fluorescent (i.e., dansyl-labeled) test substrates derived from the CAAX box of farnesylated proteins, such as the peptide GCVLS.
The IC50 value of the compounds disclosed herein as inhibitors of Ftase and/or GGTase, was determined by measuring the concentration (provided in nM) necessary to achieve inhibition of enzyme activity by 50% (IC50). […] Compounds having a low IC50 value against FTase, for example an IC50 (FTase)<100 nM, such as an IC50 (FTase)<10 nM, are preferred. Compounds having a low IC50 value against FTase and a high IC50 value against GGTase, for example an IC50 (FTase)<100 nM, such as an IC50 (FTase)<10 nM, and an IC50 (GGTase)>100 nM, are potent and selective inhibitors of FTase, and are particularly preferred.
The inhibition activities of the compounds disclosed herein against Ftase and GGTase were measured in the respective fluorescence assays as follows:
For the FTase assay, recombinant human FTase (2.5 nM), Dansyl labelled GCVLS peptide (85 nM), FPP (30 nM) and inhibitor were mixed in assay buffer (50 mM Tris, pH 7.5, 10 mM magnesium chloride, 10 μM zinc chloride, 0.08% CHAPS, 5 mM dithiothreitol) and incubated in a total volume of 20 μL at 30° C. for 50 minutes.
For both the FTase assay and GGTase assay, fluorescence intensity was detected (excitation at 340 nm and emission at 486 nm) using EnVision (PerkinElmer; Waltham, MA), IC50 determinations were performed using a sigmoidal dose-response model with Xlfit software (IDBS, Inc.; Boston, MA), and tipifarnib was used as a positive control. All the assay plates for each assay passed the QC criteria (S/B, Z factor).

IC50 | SMILES
0.01 to 0.1 µM | [2H]C([2H])([2H])n1c(=O)cc2c3cc(ccc31)[C@H](n1cnc(C)n1)c1ccc(Cl)c(c1)COc1cccc-2c1 [(S)-080, (S)-4^4-chloro-2^1-(methyl-d3)-3-(3-methyl-1H-1,2,4-triazol-1-yl)-2^1,2^2-dihydro-6-oxa-2(4,6)-quinolina-1,4(1,3)-dibenzenacyclohexaphan-2^2-one]
≤ 0.01 µM | Cn1cncc1[C@@]1(N)c2ccc(C#N)c(c2)COc2cccc(c2)-c2nccc3ccc1cc23 [(S)-86, (S)-3-amino-3-(1-methyl-1H-imidazol-5-yl)-6-oxa-2(1,7)-isoquinolina-1,4(1,3)-dibenzenacyclohexaphane-4^4-carbonitrile]
≤ 0.01 µM | Cn1cncc1[C@@]1(N)c2ccc(C#N)c(c2)COc2cccc(c2)-c2cc(OC3COC3)nc3ccc1cc23 [(S)-89, (S)-3-amino-3-(1-methyl-1H-imidazol-5-yl)-2^2-(oxetan-3-yloxy)-6-oxa-2(4,6)-quinolina-1,4(1,3)-dibenzenacyclohexaphane-4^4-carbonitrile]
0.01 to 0.1 µM | Cc1cn([C@@H]2c3ccc(C#N)c(c3)COc3cccc(c3)-c3cc(C#N)nc4ccc2cc34)cn1 [(S)-90, (S)-3-(4-methyl-1H-imidazol-1-yl)-6-oxa-2(4,6)-quinolina-1,4(1,3)-dibenzenacyclohexaphane-2^2,4^4-dicarbonitrile]
> 0.1 µM | Cc1cncn1[C@@H]1c2ccc(C#N)c(c2)COc2cccc(c2)-c2cc(C#N)nc3ccc1cc23 [(S)-91, (S)-3-(5-methyl-1H-imidazol-1-yl)-6-oxa-2(4,6)-quinolina-1,4(1,3)-dibenzenacyclohexaphane-2^2,4^4-dicarbonitrile]
0.01 to 0.1 µM | Cn1cncc1C1(O)c2cccc(c2)CCc2cccc(c2)-c2cc(=O)[nH]c3ccc1cc23 (stereo not drawn) [Compound 1, 3-hydroxy-3-(1-methyl-1H-imidazol-5-yl)-2^1,2^2-dihydro-2(4,6)-quinolina-1,4(1,3)-dibenzenacyclohexaphan-2^2-one]
≤ 0.01 µM | COc1cc2c3cc(ccc3n1)C(O)(c1cncn1C)c1ccc(C#N)c(c1)CCc1cccc-2c1 (stereo not drawn) [Compound 5, 3-hydroxy-2^2-methoxy-3-(1-methyl-1H-imidazol-5-yl)-2(4,6)-quinolina-1,4(1,3)-dibenzenacyclohexaphane-4^4-carbonitrile]
> 0.1 µM | COc1cc2c3cc(ccc3n1)C(O)(c1cncn1C)c1cccc(c1)OCc1cccc-2c1 (stereo not drawn) [Compound 10, 2^2-methoxy-3-(1-methyl-1H-imidazol-5-yl)-5-oxa-2(4,6)-quinolina-1,4(1,3)-dibenzenacyclohexaphan-3-ol]
> 0.1 µM | COc1cc2c3cc(ccc3n1)C(O)(c1cncn1C)c1ccc(Cl)c(c1)OCc1cccc-2c1 (stereo not drawn) [Compound 12, 4^4-chloro-2^2-methoxy-3-(1-methyl-1H-imidazol-5-yl)-5-oxa-2(4,6)-quinolina-1,4(1,3)-dibenzenacyclohexaphan-3-ol]
0.01 to 0.1 µM | COc1cc2c3cc(ccc3n1)C(O)(c1cncn1C)c1ccc(C#N)c(c1)OCc1cccc-2c1 (stereo not drawn) [Compound 16, 3-hydroxy-2^2-methoxy-3-(1-methyl-1H-imidazol-5-yl)-5-oxa-2(4,6)-quinolina-1,4(1,3)-dibenzenacyclohexaphane-4^4-carbonitrile]
≤ 0.01 µM | Cn1cncc1C1(O)c2ccc(C#N)c(c2)OCc2cccc(c2)-c2cc(=O)[nH]c3ccc1cc23 (stereo not drawn) [Compound 17, 3-hydroxy-3-(1-methyl-1H-imidazol-5-yl)-2^2-oxo-2^1,2^2-dihydro-5-oxa-2(4,6)-quinolina-1,4(1,3)-dibenzenacyclohexaphane-4^4-carbonitrile]
0.01 to 0.1 µM | Cn1cnnc1C1(O)c2ccc(Cl)c(c2)OCCc2cccc(c2)-c2cc(=O)[nH]c3ccc1cc23 (stereo not drawn) [Compound 31, 4^4-chloro-3-hydroxy-3-(4-methyl-4H-1,2,4-triazol-3-yl)-2^1,2^2-dihydro-5-oxa-2(4,6)-quinolina-1,4(1,3)-dibenzenacycloheptaphan-2^2-one]
